The test system of this assay is hPSCs (H9 hESCs, IMR90C4 and CS03n2 iPSCs). Nature of the assay: Differentiation of hPSCs to NCSCs (p75-NGFR/HNK1 immunocytochemistry, flow cytometry). Type of assay: cell-based, human. The note with it: CHIR99021 increased to 2 μM in E6-CSF, 15 days. (A flow cytometer gives signals particle by particle.)

The text below walks through data of patent US11643636B2, “Method of creating human pluripotent stem cell derived brain pericyte-like cells” (Wisconsin Alumni Research Foundation, priority 2018, dated 2023).

Method: We first assessed the capability of E6, a reduced factor medium, to support differentiation of H9 human embryonic stem cells (hESCs) and IMR90C4 and CS03n2 induced pluripotent stem cells (iPSCs) to NCSCs. H9 hESCs were cultured for 15 days in E6 medium supplemented with heparin and pathway modulators previously implicated in hPSC differentiation to NCSCs (48): 1 μM CHIR99021, a GSK3β inhibitor to promote WNT signaling; 10 μM SB431543, an ALK5 antagonist to inhibit Activin/Nodal/TGFβ signaling; and 10 ng/mL FGF2 (E6-CSF).
To examine the effects of BMP inhibition on hPSC differentiation to NCSCs in minimal medium, E6-CSF medium was supplemented with 1 μM dorsomorphin, a BMP type I receptor inhibitor, to generate E6-CSFD.
One day prior to initiating NCSC differentiation, hPSCs maintained in E8 medium were singularized using Accutase and seeded at 9.1×10^4 cells/cm^2 onto Matrigel coated plates with E8+10 μM Y27632. […]
Cells were fixed fifteen minutes at room temperature with either 4% paraformaldehyde (PFA) or 100% ice-cold methanol depending on antibody staining conditions. Cells were rinsed three times in PBS without Ca^2+/Mg^2+ and stored at 4° C. in PBS until ready to stain. […]

Take `Cc1c[nH]c(-c2cnc(NCCNc3ccc(C#N)cn3)nc2-c2ccc(Cl)cc2Cl)n1` [CHIR99021]: the “induction of p75-NGFR expression” value is “did not aid in inducing p75-NGFR expression”.
